In general, IC50 refers to the midpoint of a concentration-inhibition curve.

The source of these data is patent US8623912B2, “Fostriecin derivatives and the pharmaceutical uses thereof” (priority 2008, dated 2014).

The subject of one data set is HL60 (human leukemia). The data set can be described thus: Celltiter 96 cell proliferation assay (modified MTT method), HL60. The data set is classed as cell-based. To be noted: read-out: IC50 HL60 (human leukemia). The protocol:
(§1) The anti-tumor activities of the compounds of thiophosphorylated FST (A) and methyl phosphorylated FST (B) of the present invention to various tumor cell lines of HL-60, CCRD-CEM and NCI-H460 were determined by Celltiter 96 cell proliferation assay kit (modified MTT method) manufactured by Promega company. Onto a 96-well plate, total volume 50 ul/well was added with about 5-7.5×10^3 cells/well, and cultured for 24 hours, followed by addition of 50 ul of the compounds (0.001 nM˜1000 nM) to each well, and cultured for 72 hours. Subsequently, 15 ul of MTT staining solution was added to the well, temperature was kept for 4 hours, the thus formed precipitate was then dissolved with 100 ul lysis buffe/stop solution. After 1 hour, the content in the well was mixed homogeneously with a shaker, and the abosorption value (OD 570 nm) of each well was measured by enzyme-labeled instrument (Molecular Devices). The data was analyzed with Kaleida Graph Program, and the IC50 value (the concentration of the compound at which the growth of 50% of the cell is inhibited) was calculated.

The test system of data set [1] is NCI-H460 (human Lung Cancer). Kind of data set: Celltiter 96 cell proliferation assay (modified MTT method), NCI-H460. It counts as cell-based. To be noted: read-out: IC50 NCI-H460 (human Lung Cancer). The protocol: as §1
For data set [2], the system named is CCRF-CEM (human leukemia). The data set can be described thus: Celltiter 96 cell proliferation assay (modified MTT method), CCRF-CEM. The data set is classed as cell-based. To be noted: read-out: IC50 CCRF-CEM (human leukemia). How it is done: as §1
Another data set concerns alkaline phosphatase. It counts as in vitro ADME. The conditions noted are these: FIG. 2; for stability under the action of alkaline phosphatase: 75 mM Tris Buffer pH 8.3, 5 mM MgCl2, 37° C., 2-5 hours; for formation of dephosphorylated FST under alkaline phosphatase: conditions of Example 1. How it is done: Reaction condidtions: FST was dissolved in a solution of 75 mM Tris Buffer (pH 8.3) and 5 mM MgCl2 to obtain a 20 mM FST solution, to each milligram of Fostriecin was added 1 to 1.5 units of alkaline phosphatase, enzymolysis was performed at 37° C. for 2-5 hours.
Thiophosphorylated FST(A) and methyl phosphorylated FST(B) were subjected to hydrolysis of alkaline phosphatase under the reaction condidtions as described in Example 1.

For a further data set, the target named is T1, PP4 (Homo sapiens, UniProt P60510).
T1 sequence (P60510 1-307): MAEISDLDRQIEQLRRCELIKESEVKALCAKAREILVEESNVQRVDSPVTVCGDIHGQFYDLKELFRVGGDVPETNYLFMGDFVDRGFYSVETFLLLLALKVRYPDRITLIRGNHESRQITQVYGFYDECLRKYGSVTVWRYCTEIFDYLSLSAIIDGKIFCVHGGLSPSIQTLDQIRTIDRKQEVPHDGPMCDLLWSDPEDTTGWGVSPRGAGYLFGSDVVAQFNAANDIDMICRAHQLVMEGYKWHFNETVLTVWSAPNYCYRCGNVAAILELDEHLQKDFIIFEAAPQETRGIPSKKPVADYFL
The conditions noted are these: cited from earlier work.

The next data set concerns the target protein phophatase PP2A (Homo sapiens, UniProt P67775). To be noted: cited from earlier work.
Setting [3] is: HL-60, 72 hours culture with compound, MTT, OD 570 nm.
Setting [4] is: NCI-H460, 72 hours culture with compound, MTT, OD 570 nm.
Setting [5] is: 72 hours culture with compound, MTT, OD 570 nm.

Read-outs that look alike come from different tables or passages of the source.

protein phophatase PP2A, sequence (P67775 whole entry): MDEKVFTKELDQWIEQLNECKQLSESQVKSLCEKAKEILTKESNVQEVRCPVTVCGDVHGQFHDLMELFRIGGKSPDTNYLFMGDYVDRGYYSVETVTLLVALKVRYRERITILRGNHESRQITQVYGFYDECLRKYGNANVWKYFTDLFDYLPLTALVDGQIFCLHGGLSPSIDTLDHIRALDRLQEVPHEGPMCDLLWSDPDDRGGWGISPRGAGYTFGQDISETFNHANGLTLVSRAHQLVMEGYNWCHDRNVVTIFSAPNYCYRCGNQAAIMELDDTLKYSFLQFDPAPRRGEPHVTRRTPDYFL

For `C[C@@](O)(/C=C/C1CC=CC(=O)O1)C(C[C@@H](O)\C=C/C=C\C=C\CO)OP(O)(O)=S` (stereo partly drawn) [A], the IC50 amounted to 10.5 µM in the data set on HL60 (human leukemia) (HL-60, 72 h); 13.2 µM in data set [1] (NCI-H460, 72 h); 9.6 µM in data set [2] (72 h). The “stability under the action of alkaline phosphatase” value with alkaline phosphatase is “relatively stable”. In addition, the “formation of dephosphorylated FST under alkaline phosphatase” value with alkaline phosphatase was “no dephosphorylated FST was formed”.
`C[C@@](O)(/C=C/[C@H]1CC=CC(=O)O1)C(C[C@@H](O)\C=C/C=C\C=C\CO)OCP(=O)(O)O` (stereo partly drawn) [B]: the 50% inhibitory concentration (IC50) in the data set on HL60 (human leukemia) (setting [3]) is 12.5 µM; in data set [1] (setting [4]), 16.3 µM; in data set [2] (setting [5]), 14 µM. In the data set with alkaline phosphatase, the “stability under the action of alkaline phosphatase” value is “relatively stable”. The “formation of dephosphorylated FST under alkaline phosphatase” value with alkaline phosphatase is recorded as “no dephosphorylated FST was formed”.
`CC(O)(C=CC1CC=CC(=O)O1)C(CC(O)C=CC=CC=CCO)OP(=O)(O)O` (stereo not drawn) [FST, Fostriecin]: the half-maximal inhibitory concentration (IC50) was 0.003 µM on PP4; 12 µM with HL60 (human leukemia) (setting [3]); 0.0015 µM on protein phophatase PP2A; 14.5 µM in data set [1] (setting [4]); 10 µM in data set [2] (setting [5]).
